The results in this text go back to US20250163044A1, “COMPOUNDS” (PSYLO PTY LTD, priority 2021, published 2025).

Common to all, as to assay type: cell-based
One test addresses T1, 5-HT2B receptor (Homo sapiens, UniProt P41595).
T1 construct: host or cells: CHO-K1
The test is described as follows: FLIPR Ca2+ flux functional assay, agonist activity at 5-HT2B. The following applies: CHO-K1 cells, Ca2+ flux; for EC50: read-out: 5-HT2B EC50. Here is the method: (§1) Activity at 5-HT2A, 5-HT2B and 5-HT2C receptors was determined using a FLIPR Ca2+ flux assay at WuXi AppTec Co. Ltd. (Hong Kong) Discovery Biology Unit according to their standard protocols. Briefly, stably transfected cells expressing the receptor of interest (HEK293 for 5-HT2A and 5-HT2C; CHO-K1 for 5-HT2B) were grown and plated in a 384 well plate and incubated at 37° C. and 5% CO2 overnight. A 250 mM stock solution of probenecid in FLIPR calcium assay buffer (10 mL) was freshly prepared and combined with a fluorescent dye (Fluo-4 Direct) to give a final assay concentration of 2.5 mM. Reference compounds were 4-fold serially diluted and the screening compounds were 3-fold serially diluted in 100% DMSO for 10 points using Agilent Bravo, and 750 nL was added to a 384 well compound plate using Echo along with 30 μL assay buffer. The fluorescent dye was then added to the assay plate along with assay buffer to a final volume of 40 μL. The cell plate was incubated for 50 min at 37° C. and 5% CO2 and placed into the FLIPR Tetra along with the compound plate. 10 μL of references and compounds were then transferred from the compound plate into the cell plate and the fluorescent signal was read.
In general terms: Calcium flux is commonly read through the fluorescence of an indicator in the cells.

The target in a further test is T2, 5-HT2C receptor (Homo sapiens, UniProt P28335).
T2 construct: host or cells: HEK293
T2 sequence (P28335 33-458): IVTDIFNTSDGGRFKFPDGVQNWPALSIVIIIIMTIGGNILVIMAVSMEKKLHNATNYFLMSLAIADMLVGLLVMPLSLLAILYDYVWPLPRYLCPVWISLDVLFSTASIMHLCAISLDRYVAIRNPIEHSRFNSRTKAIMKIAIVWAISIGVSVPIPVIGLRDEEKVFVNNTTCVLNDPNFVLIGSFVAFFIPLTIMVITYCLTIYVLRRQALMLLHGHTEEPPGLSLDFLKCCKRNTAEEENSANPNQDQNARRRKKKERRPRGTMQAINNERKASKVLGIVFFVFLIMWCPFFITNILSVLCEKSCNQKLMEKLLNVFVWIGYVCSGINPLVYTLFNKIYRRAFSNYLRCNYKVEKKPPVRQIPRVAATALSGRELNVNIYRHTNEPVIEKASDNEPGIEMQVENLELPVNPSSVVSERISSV
Description: FLIPR Ca2+ flux functional assay, agonist activity at 5-HT2C. The conditions noted are these: HEK293 cells, Ca2+ flux; for EC50: read-out: 5-HT2C EC50. Here is the method: as §1

A further test addresses T3, 5-HT2A receptor (Homo sapiens, UniProt P28223).
T3 construct: host or cells: HEK293
The test is described as follows: FLIPR Ca2+ flux functional assay, agonist activity at 5-HT2A. The conditions noted are these: HEK293 cells, Ca2+ flux; for EC50: read-out: 5-HT2A EC50. Here is the method: as §1

T1 sequence (P41595 whole entry): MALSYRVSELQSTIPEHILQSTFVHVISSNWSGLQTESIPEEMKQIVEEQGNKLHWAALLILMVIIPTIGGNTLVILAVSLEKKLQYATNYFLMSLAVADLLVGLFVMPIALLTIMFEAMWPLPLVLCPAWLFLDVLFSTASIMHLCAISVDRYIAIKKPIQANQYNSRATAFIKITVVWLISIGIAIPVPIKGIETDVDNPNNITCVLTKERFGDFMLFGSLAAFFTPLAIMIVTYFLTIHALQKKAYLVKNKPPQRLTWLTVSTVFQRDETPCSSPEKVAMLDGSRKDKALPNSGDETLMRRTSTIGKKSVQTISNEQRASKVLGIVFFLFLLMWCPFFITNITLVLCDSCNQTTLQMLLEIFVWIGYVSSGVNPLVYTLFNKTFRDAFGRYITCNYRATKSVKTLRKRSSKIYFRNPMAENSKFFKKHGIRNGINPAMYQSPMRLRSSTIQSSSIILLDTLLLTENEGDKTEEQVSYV
T3 sequence (P28223 whole entry): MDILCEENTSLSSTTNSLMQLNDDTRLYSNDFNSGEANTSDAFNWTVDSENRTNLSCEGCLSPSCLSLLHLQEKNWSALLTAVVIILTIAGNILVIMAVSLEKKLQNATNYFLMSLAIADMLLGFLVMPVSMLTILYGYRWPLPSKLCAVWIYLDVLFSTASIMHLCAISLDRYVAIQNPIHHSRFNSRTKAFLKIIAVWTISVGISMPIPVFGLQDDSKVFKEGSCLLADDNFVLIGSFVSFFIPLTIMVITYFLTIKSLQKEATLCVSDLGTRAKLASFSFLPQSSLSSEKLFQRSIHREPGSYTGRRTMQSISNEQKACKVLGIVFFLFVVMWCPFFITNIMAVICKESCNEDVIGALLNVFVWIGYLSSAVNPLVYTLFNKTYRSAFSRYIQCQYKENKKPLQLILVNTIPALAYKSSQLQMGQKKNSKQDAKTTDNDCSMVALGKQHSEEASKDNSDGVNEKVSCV

With `CN(C)CCc1n[nH]c2cccc(O)c12` [Example P-6], the EC50 at 5-HT2B receptor and on 5-HT2C receptor was more than 10000 nM in each case.

In the case of `CN(C)CCc1n[nH]c2ccccc12` [Example P-7], the EC50 – broadly, the concentration that produces a half-maximal response – was more than 10000 nM at 5-HT2B receptor, more than 10000 nM on 5-HT2A receptor and 2340 nM on 5-HT2C receptor.

With `COc1ccc2onc(CCN(C)C)c2c1` [Example P-9, 2-(5-methoxybenzo[d]isoxazol-3-yl)-N,N-dimethylethan-1-amine], the Emax (usually the maximal effect, on the per cent scale that the assay sets) at 5-HT2B receptor was 2.53%; on 5-HT2A receptor it was 37.3%; on 5-HT2C receptor, -30.5%. Also, the EC50 is more than 10000 nM on 5-HT2B receptor, 1020 nM at 5-HT2A receptor and more than 10000 nM at 5-HT2C receptor.

Take `CCN(CC)CCc1c[nH]c2ccc(OC)nc12` [Example P-10, 2-(5-Methoxy-1H-pyrrolo[3,2-b]pyridin-3-yl)-N,N-diethylethan-1-amine]: the values for the Emax at 5-HT2B receptor, on 5-HT2A receptor and on 5-HT2C receptor were 47.1%, 82.8% and 99.1%, respectively. Also, the figures for the EC50 on 5-HT2B receptor, at 5-HT2A receptor and on 5-HT2C receptor were 284 nM, 6.11 nM and 68.6 nM, respectively.

As for `CCCN(CCC)CCc1c[nH]c2ccc(OC)nc12` [Example P-11, 2-(5-methoxy-1H-pyrrolo[3,2-b]pyridin-3-yl)-N,N-dipropylethan-1-amine], the Emax on 5-HT2B receptor is 92.1%; on 5-HT2A receptor, 99.1%; on 5-HT2C receptor, 96.3%. For the same compound, the EC50 was 52.2 nM on 5-HT2B receptor, 4.17 nM on 5-HT2A receptor and 91.1 nM at 5-HT2C receptor.

For the compound `COc1ccc2[nH]cc(CCN(C(C)C)C(C)C)c2n1` [Example P-12, N-isopropyl-N-(2-(5-methoxy-1H-pyrrolo[3,2-b]pyridin-3-yl)ethyl)propan-2-amine], the Emax at 5-HT2B receptor was 102%; at 5-HT2A receptor, 85.7%; on 5-HT2C receptor it was 110%. For the same compound, the EC50 at 5-HT2B receptor amounted to 22.2 nM; at 5-HT2A receptor, 6.96 nM; on 5-HT2C receptor, 200 nM.

On to `CCN(C)CCc1c[nH]c2ccc(OC)nc12` [Example P-13, N-ethyl-2-(5-methoxy-1H-pyrrolo[3,2-b]pyridin-3-yl)-N-methylethan-1-amine], for which the Emax at 5-HT2B receptor turned out to be 2.25%; on 5-HT2A receptor, 79.6%; at 5-HT2C receptor, 95.8%. Also, the results for the EC50 on 5-HT2B receptor, at 5-HT2A receptor and at 5-HT2C receptor were more than 10000 nM, 10.1 nM and 31.9 nM, respectively.

Consider `COc1ccc2[nH]cc(CCN(C)C(C)C)c2n1` [Example P-14, N-(2-(5-methoxy-1H-pyrrolo[3,2-b]pyridin-3-yl)ethyl)-N-methylpropan-2-amine], for which the Emax came to 1.06% on 5-HT2B receptor, 78.9% at 5-HT2A receptor and 98.3% at 5-HT2C receptor. The EC50 at 5-HT2B receptor is more than 10000 nM; on 5-HT2A receptor, 21 nM; at 5-HT2C receptor, 139 nM.

In the case of `CCN(CC)CCc1c[nH]c2ncc(OC)cc12` [Example P-17, 2-(5-methoxy-1H-pyrrolo[2,3-b]pyridin-3-yl)-N,N-diethylethan-1-amine], the Emax was 0.37% at 5-HT2B receptor, 84.7% on 5-HT2A receptor and -0.53% at 5-HT2C receptor. In addition, the values for the EC50 on 5-HT2B receptor, at 5-HT2A receptor and at 5-HT2C receptor were more than 10000 nM, 279 nM and more than 10000 nM, respectively.

For `CCCN(CCC)CCc1c[nH]c2ncc(OC)cc12` [Example P-18, 2-(5-methoxy-1H-pyrrolo[2,3-b]pyridin-3-yl)-N,N-dipropylethan-1-amine], the Emax at 5-HT2B receptor is 9.35%; at 5-HT2A receptor it was 89.4%; at 5-HT2C receptor, -0.33%. For the same compound, the EC50 at 5-HT2B receptor was more than 10000 nM; on 5-HT2A receptor, 85.5 nM; on 5-HT2C receptor it was more than 10000 nM.

For `COc1cnc2[nH]cc(CCN(C(C)C)C(C)C)c2c1` [Example P-19, N-isopropyl-N-(2-(5-methoxy-1H-pyrrolo[2,3-b]pyridin-3-yl)ethyl)propan-2-amine], the Emax at 5-HT2B receptor worked out at 13.3%; on 5-HT2A receptor, 112%; at 5-HT2C receptor, 0.16%. Also, the EC50 at 5-HT2B receptor was more than 10000 nM; on 5-HT2A receptor, 72.9 nM; on 5-HT2C receptor, more than 10000 nM.

Turning to `CCN(C)CCc1c[nH]c2ncc(OC)cc12` [Example P-20, N-ethyl-2-(5-methoxy-1H-pyrrolo[2,3-b]pyridin-3-yl)-N-methylethan-1-amine], the Emax on 5-HT2B receptor is 1.38%; at 5-HT2A receptor, 76.7%; on 5-HT2C receptor, -0.08%. Besides, the EC50 is more than 10000 nM on 5-HT2B receptor, 93.3 nM on 5-HT2A receptor and more than 10000 nM on 5-HT2C receptor.

For `COc1cnc2[nH]cc(CCN(C)C(C)C)c2c1` [Example P-21, N-(2-(5-methoxy-1H-pyrrolo[2,3-b]pyridin-3-yl)ethyl)-N-methylpropan-2-amine], the Emax at 5-HT2B receptor is 4.56%; at 5-HT2A receptor, 79.8%; on 5-HT2C receptor, -0.15%. For the same compound, the EC50 on 5-HT2B receptor is more than 10000 nM; on 5-HT2A receptor, 109 nM; on 5-HT2C receptor, more than 10000 nM.

Regarding `Cc1cnc2[nH]cc(CCN(C)C)c2c1` [Example P-22, N,N-dimethyl-2-(5-methyl-1H-pyrrolo[2,3-b]pyridin-3-yl)ethan-1-amine], the values for the Emax at 5-HT2B receptor, at 5-HT2A receptor and on 5-HT2C receptor were 1.91%, 55.5% and 0.27%, respectively. Besides, the figures for the EC50 at 5-HT2B receptor, at 5-HT2A receptor and on 5-HT2C receptor were more than 10000 nM, 691 nM and more than 10000 nM, respectively.

For the compound `CCN(C)CCc1c[nH]c2ncc(C)cc12` [Example P-23, N-ethyl-N-methyl-2-(5-methyl-1H-pyrrolo[2,3-b]pyridin-3-yl)ethan-1-amine], the Emax on 5-HT2B receptor is 0.88%; on 5-HT2A receptor, 55%; at 5-HT2C receptor, -0.04%. The EC50 is more than 10000 nM on 5-HT2B receptor, 1240 nM on 5-HT2A receptor and more than 10000 nM at 5-HT2C receptor.

Take `CN(C)CCc1c[nH]c2ncc(F)cc12` [Example P-24, N,N-dimethyl-2-(5-fluoro-1H-pyrrolo[2,3-b]pyridin-3-yl)ethan-1-amine]: the values for the Emax on 5-HT2B receptor, at 5-HT2A receptor and on 5-HT2C receptor were 6.16%, 56.5% and 24.7%, respectively. Moreover, the results for the EC50 at 5-HT2B receptor, on 5-HT2A receptor and on 5-HT2C receptor were more than 10000 nM, 80.8 nM and more than 10000 nM, respectively.

On to `CCN(C)CCc1c[nH]c2ncc(F)cc12` [Example P-25, N-ethyl-N-methyl-2-(5-fluoro-1H-pyrrolo[2,3-b]pyridin-3-yl)ethan-1-amine], for which the Emax came to 8.23% at 5-HT2B receptor, 70.3% on 5-HT2A receptor and 21% at 5-HT2C receptor. For the same compound, the figures for the EC50 at 5-HT2B receptor, on 5-HT2A receptor and on 5-HT2C receptor were more than 10000 nM, 109 nM and more than 10000 nM, respectively.

As for `CCN(CC)CCc1c[nH]c2nccc(OC)c12` [Example P-26, N,N-diethyl-2-(4-methoxy-1H-pyrrolo[2,3-b]pyridin-3-yl)ethan-1-amine], the Emax at 5-HT2B receptor was found to be 3.08%; at 5-HT2A receptor it was 58.3%; at 5-HT2C receptor, 0.9%. The EC50 on 5-HT2B receptor is more than 10000 nM; at 5-HT2A receptor, 1620 nM; on 5-HT2C receptor it was more than 10000 nM.

As to `COc1ccnc2[nH]cc(CCN(C(C)C)C(C)C)c12` [Example P-27, N-isopropyl-N-(2-(4-methoxy-1H-pyrrolo[2,3-b]pyridin-3-yl)ethyl)propan-2-amine], the Emax on 5-HT2B receptor was found to be 35.6%; at 5-HT2A receptor, 80.2%; at 5-HT2C receptor it was 0.54%. In addition, the EC50 on 5-HT2B receptor is more than 10000 nM; on 5-HT2A receptor, 857 nM; at 5-HT2C receptor, more than 10000 nM.

On to `CCN(C)CCc1c[nH]c2nccc(OC)c12` [Example P-28, N-ethyl-2-(4-methoxy-1H-pyrrolo[2,3-b]pyridin-3-yl)-N-methylethan-1-amine], for which the Emax at 5-HT2B receptor is 0.69%; at 5-HT2A receptor, 70.5%; on 5-HT2C receptor it was -0.06%. Further, the 50% effective concentration (EC50) on 5-HT2B receptor was more than 10000 nM; at 5-HT2A receptor it was 782 nM; on 5-HT2C receptor, more than 10000 nM.

With `COc1ccnc2[nH]cc(CCN(C)C(C)C)c12` [Example P-29, N-(2-(4-methoxy-1H-pyrrolo[2,3-b]pyridin-3-yl)ethyl)-N-methylpropan-2-amine], the Emax came out at 0.59% on 5-HT2B receptor, 71.6% on 5-HT2A receptor and 0.48% at 5-HT2C receptor. The EC50 on 5-HT2B receptor was more than 10000 nM; at 5-HT2A receptor, 555 nM; at 5-HT2C receptor, more than 10000 nM.

As to `Cc1nccc2[nH]cc(CCN(C)C)c12` [Example P-39], at 5-HT2A receptor, the Emax was found to be 1.47% and the EC50 is more than 10000 nM.

On to `CCN(C)CCc1c[nH]c2ccnc(C)c12` [Example P-40], for which, at 5-HT2A receptor, the Emax turned out to be 0.75% and the EC50 is more than 10000 nM.
